The results in this text go back to patent US20230148417A1, “FUSED BICYCLIC DERIVATIVE, PREPARATION METHOD THEREFOR, AND PHARMACEUTICAL USE THEREOF” (Jiangsu Hengrui Pharmaceuticals Co., Ltd., priority 2020, published 2023).

Common to all, as to type: biochemical
Experiment [1] concerns the target T1, AKT1 (Homo sapiens, UniProt P31749).
T1 construct: purchased Invitrogen P2999
Kind of experiment: AKT1 enzymatic assay (KinEASE-STK S3 HTRF kit). The note with it: 2 nM enzyme, 10 μM ATP, 2 μM S3-biotin. On the procedure: (§1) The following methods were used to determine the inhibitory effect of the compounds of the present disclosure on the kinase activity of AKT1/AKT2/AKT3 in vitro. The experimental methodology is briefly described as follows:
(§2) The enzyme activity of AKT1 (Invitrogen, P2999), AKT2 (Invitrogen, PV3184) and AKT3 (Invitrogen, PV3185) was determined using a KinEASE-STK S3 kit (Cisbio, 62ST3PEC). Test compounds were each first subjected to 3-fold gradient dilution with DMSO from 500 μM to obtain a total of 11 concentrations. The 5× buffer in the kit was diluted to 1×buffer, and DTT (Sigma, 43816-10ML) and MgCl2 were added to make the buffer contain 1 mM DTT and 5 mM MgCl2. Compounds were each subjected to 20-fold dilution with 1× buffer for later use. The enzyme solution was obtained by diluting the AKT1/AKT2/AKT3 kinase with 1× buffer. ATP (Invitrogen, PV3227) and S3-biotin in the kit were diluted with 1× buffer to obtain a substrate-ATP mixture solution for later use. 2 μL of the enzyme solution and 4 μL of the compound solution were added to each well of a 384-well plate (Corning, 4513), and the mixture was incubated at room temperature for 30 min, followed by addition of 4 μL of the ATP and S3-biotin mixture solution. The resulting mixture was incubated at room temperature for 90 min. AKT1 enzyme reaction conditions were a final concentration of 2 nM for enzyme, a final concentration of 10 μM for ATP, and a final concentration of 2 μM for S3-biotin. AKT2 enzyme reaction conditions were a final concentration of 5 nM for enzyme, a final concentration of 10 μM for ATP, and a final concentration of 2 μM for S3-biotin. AKT3 enzyme reaction conditions were a final concentration of 0.4 nM for enzyme, a final concentration of 45 μM for ATP, and a final concentration of 2 μM for S3-biotin. The detection solution was prepared by diluting the S3-cryptate and streptavidin-XL665 with the detection buffer in the kit. After incubation, 10 μL of the detection solution was added to each well, the final concentration of S3-cryptate was a concentration obtained by 200-fold dilution of the stock solution, and the final concentration of streptavidin-XL665 was 125 nM. The mixture was incubated at room temperature for 60 min, values of signals emitted at […] and 620 nm after excitation at 337 nm were measured by using an HTRF module of a multi-functional microplate detector (BMG Labtech, PHERAstar FS), and the reading ratio was multiplied by 10,000 to obtain a specific value. Dose-response curves were drawn according to the concentration of the compounds and the specific values by using Graphpad Prism software, and the IC50 values for the inhibitory activity of the compounds were calculated.
A general note: Time-resolved FRET reads energy transfer from a long-lived donor to a nearby acceptor.

Experiment [2] has as its target T2, AKT2 (Homo sapiens, UniProt P31751).
T2 construct: purchased Invitrogen PV3184
Kind of experiment: AKT2 enzymatic assay (KinEASE-STK S3 HTRF kit). The following applies: 5 nM enzyme, 10 μM ATP, 2 μM S3-biotin. On the procedure:
as §1, §2

Experiment [3] has as its target T3, AKT3 (Homo sapiens, UniProt Q9Y243).
T3 construct: purchased Invitrogen PV3185
In words: AKT3 enzymatic assay (KinEASE-STK S3 HTRF kit). The note with it: 0.4 nM enzyme, 45 μM ATP, 2 μM S3-biotin. On the procedure:
as §1, §2

pIC50: −log10 of the molar value.

One may read the pIC50 as the negative decadic logarithm of the IC50, by convention in mol/L. A higher pIC50 goes with a small IC50.

T3 sequence (Q9Y243 whole entry): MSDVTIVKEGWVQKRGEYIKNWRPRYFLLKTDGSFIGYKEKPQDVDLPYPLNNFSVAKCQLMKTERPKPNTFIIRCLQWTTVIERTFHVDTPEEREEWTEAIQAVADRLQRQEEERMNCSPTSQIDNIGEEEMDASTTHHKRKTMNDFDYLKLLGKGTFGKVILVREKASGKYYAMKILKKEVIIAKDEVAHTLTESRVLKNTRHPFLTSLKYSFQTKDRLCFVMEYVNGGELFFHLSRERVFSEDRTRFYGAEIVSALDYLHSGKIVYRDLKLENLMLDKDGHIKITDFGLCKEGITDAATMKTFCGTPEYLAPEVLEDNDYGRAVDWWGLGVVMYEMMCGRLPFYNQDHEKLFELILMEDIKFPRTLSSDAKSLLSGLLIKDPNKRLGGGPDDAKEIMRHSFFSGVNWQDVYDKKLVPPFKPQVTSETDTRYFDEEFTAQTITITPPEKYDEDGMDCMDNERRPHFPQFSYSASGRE
T1 sequence (P31749 whole entry): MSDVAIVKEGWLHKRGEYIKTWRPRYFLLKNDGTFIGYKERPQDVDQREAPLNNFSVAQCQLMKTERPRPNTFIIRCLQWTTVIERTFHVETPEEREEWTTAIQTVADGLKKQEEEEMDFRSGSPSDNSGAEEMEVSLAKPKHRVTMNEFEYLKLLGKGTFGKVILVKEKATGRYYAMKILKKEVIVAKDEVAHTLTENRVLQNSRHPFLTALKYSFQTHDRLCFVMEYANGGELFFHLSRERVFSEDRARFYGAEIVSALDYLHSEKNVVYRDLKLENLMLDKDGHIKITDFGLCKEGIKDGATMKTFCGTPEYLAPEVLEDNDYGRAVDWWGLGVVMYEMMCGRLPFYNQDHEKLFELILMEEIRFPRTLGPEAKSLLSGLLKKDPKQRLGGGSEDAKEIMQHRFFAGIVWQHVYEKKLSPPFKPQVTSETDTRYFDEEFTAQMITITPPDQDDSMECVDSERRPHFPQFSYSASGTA
T2 sequence (P31751 whole entry): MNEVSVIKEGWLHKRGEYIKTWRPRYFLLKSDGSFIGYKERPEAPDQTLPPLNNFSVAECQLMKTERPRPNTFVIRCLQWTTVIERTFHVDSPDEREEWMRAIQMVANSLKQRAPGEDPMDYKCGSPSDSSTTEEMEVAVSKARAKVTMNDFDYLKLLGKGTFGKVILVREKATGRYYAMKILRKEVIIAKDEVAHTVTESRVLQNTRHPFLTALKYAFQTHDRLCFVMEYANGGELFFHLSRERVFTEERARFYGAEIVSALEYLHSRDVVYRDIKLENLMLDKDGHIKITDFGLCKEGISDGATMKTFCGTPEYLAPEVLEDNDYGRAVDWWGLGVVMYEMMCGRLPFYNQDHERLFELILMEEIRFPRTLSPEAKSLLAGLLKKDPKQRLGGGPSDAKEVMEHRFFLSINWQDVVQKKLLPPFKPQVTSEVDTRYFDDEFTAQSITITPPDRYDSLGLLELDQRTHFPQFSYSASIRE

As for `CC(C)NC[C@@H](C(=O)N1[C@@H]2CC[C@H]1CN(c1ncnc3[nH]ccc13)C2)c1ccc(Cl)cc1` [Example 1, (S)-1-((1R,5S)-3-(7H-pyrrolo[2,3-d]pyrimidin-4-yl)-3,8-diazabicyclo[3.2.1]octan-8-yl)-2-(4-chlorophenyl)-3-(isopropylamino)propan-1-one], the pIC50 is 7.70 in experiment [1], 7.19 in experiment [2] and 7.56 in experiment [3].
With `Cc1c[nH]c2ncnc(N3C[C@H]4CC[C@@H](C3)N4C(=O)[C@H](CNC(C)C)c3ccc(Cl)cc3)c12` [Example 3, (S)-2-(4-chlorophenyl)-3-(isopropylamino)-1-((1R,5S)-3-(5-methyl-7H-pyrrolo[2,3-d]pyrimidin-4-yl)-3,8-diazabicyclo[3.2.1]octan-8-yl]propan-1-one], the pIC50 is 8.28 in experiment [1], 8.41 in experiment [2] and 8.92 in experiment [3].
Taken in the same sequence, the figures for `CC(C)NC[C@@H](C(=O)N1C2CCCC1CN(c1ncnc3[nH]ccc13)C2)c1ccc(Cl)cc1` [Example 5, (2S)-1-(3-(7H-pyrrolo[2,3-d]pyrimidin-4-yl)-3,9-diazabicyclo[3.3.1]nonan-9-yl)-2-(4-chlorophenyl)-3-(isopropylamino)propan-1-one] were 7.17, 7.15 and 6.95.
Taken in the same sequence, the figures for `CC(C)NC[C@@H](C(=O)N1C2COCC1CN(c1ncnc3[nH]ccc13)C2)c1ccc(Cl)cc1` [Example 6, (2S)-1-(7-(7H-pyrrolo[2,3-d]pyrimidin-4-yl)-3-oxa-7,9-diazabicyclo[3.3.1]nonan-9-yl)-2-(4-chlorophenyl)-3-(isopropylamino)propan-1-one] were 7.05, 6.85 and 6.57.
For the compound `CC(C)NC[C@@H](C(=O)N1CC2COCC(C1)N2c1ncnc2[nH]ccc12)c1ccc(Cl)cc1` [Example 7, (2S)-1-(9-(7H-pyrrolo[2,3-d]pyrimidin-4-yl)-3-oxa-7,9-diazabicyclo[3.3.1]nonan-7-yl)-2-(4-chlorophenyl)-3-(isopropylamino)-propan-1-one], the pIC50 in experiment [1] is 7.09; in experiment [2], 6.57; in experiment [3], 7.22.
Taken in the same sequence, the figures for `CC(C)NC[C@@H](C(=O)N1[C@@H]2CC[C@H]1CN(c1ncnc3c1[C@H](C)C[C@H]3F)C2)c1ccc(Cl)cc1` [Example 8, (S)-2-(4-chlorophenyl)-1-((1R,5S)-3-((5R,7R)-7-fluoro-5-methyl-6,7-dihydro-5H-cyclopenta[d]pyrimidin-4-yl)-3,8-diazabicyclo[3.2.1]octan-8-yl)-3-(isopropylamino)propan-1-one] were 7.25, 7.27 and 7.18.
Taken in the same sequence, the figures for `Cc1c[nH]c2nccc(N3C[C@H]4CC[C@@H](C3)N4C(=O)[C@H](CNC(C)C)c3ccc(Cl)cc3)c12` [Example 9, (S)-2-(4-chlorophenyl)-3-(isopropylamino)-1-((1R,5S)-3-(3-methyl-1H-pyrrolo[2,3-b]pyridin-4-yl)-3,8-diazabicyclo[3.2.1]octan-8-yl)propan-1-one] were 7.71, 7.88 and 8.20.
